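Protocol summary: plate cells (96-well), add compound at 5 concentrations, incubate 48 h, interpolate endpoints linearly. GI50 is the concentration that inhibits growth by half. TGI denotes the concentration required for complete inhibition of growth.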
Assays:
Test in all cases: DTP human tumour cell line panel, 48 h
CCRF-CEM leukemia = test system: CCRF-CEM leukemia
M14 melanoma = test system: M14 melanoma
SNB-19 CNS = test system: SNB-19 CNS
SK-MEL-5 melanoma = test system: SK-MEL-5 melanoma
SN12C renal = test system: SN12C renal
UACC-257 melanoma = test system: UACC-257 melanoma
MOLT-4 leukemia = test system: MOLT-4 leukemia
UO-31 renal = test system: UO-31 renal
EKVX NSCLC = test system: EKVX NSCLC
NCI-H460 lung = test system: NCI-H460 lung

Row | SMILES | TGI (CCRF-CEM leukemia) [µM] | TGI (M14 melanoma) [µM] | TGI (SNB-19 CNS) [µM] | TGI (SK-MEL-5 melanoma) [µM] | TGI (SN12C renal) [µM] | TGI (UACC-257 melanoma) [µM] | TGI (MOLT-4 leukemia) [µM] | TGI (UO-31 renal) [µM] | TGI (EKVX NSCLC) [µM] | TGI (NCI-H460 lung) [µM] | GI50 (CCRF-CEM leukemia) [µM] | GI50 (SN12C renal) [µM] | GI50 (UACC-257 melanoma) [µM] | GI50 (NCI-H460 lung) [µM] | GI50 (MOLT-4 leukemia) [µM] | GI50 (UO-31 renal) [µM] | GI50 (EKVX NSCLC) [µM]
1 | O=C(OC1CN2CCC1CC2)N(c1ccccc1)c1ccccc1 (centres undefined) | > 100 | > 100 | > 100 | > 100 | > 100 | > 100 | > 100 | > 100 | > 100 | – | – | – | – | – | – | – | –
2 | CCCCCCCCCCCCCCCCCCNC(=S)/N=C/c1c(O)c2ccccc2[nH]c1=O | – | 35.5 | 36.3 | 70.7 | 41 | 37.1 | 29.7 | 32.6 | 29.6 | 32.6 | – | – | – | – | – | – | –
3 | O=C1CC(=O)NC(=NN2C(=O)CSC2C(=O)c2ccco2)N1 (centres undefined) | > 100 | > 100 | – | > 100 | > 100 | > 100 | > 100 | > 100 | – | > 100 | – | – | – | – | – | – | –
4 | O=P(Nc1ccccc1)(Oc1ccccc1)N(CCCl)CCCl (centres undefined) | > 100 | > 100 | – | > 100 | > 100 | > 100 | > 100 | 28.2 | > 100 | – | – | – | – | – | – | – | –
5 | COc1cc(C2C3=C(CCCC3=O)N(c3ccc(C)cc3)C3=C2C(=O)CCC3)c([N+](=O)[O-])cc1OC | > 100 | > 100 | > 100 | > 100 | > 100 | – | > 100 | > 100 | > 100 | > 100 | – | – | – | – | – | – | –
6 | Cc1cc2c(c(S(=O)(=O)c3ccccc3[N+](=O)[O-])c1)NCCC2 | – | > 100 | > 100 | > 100 | > 100 | – | – | > 100 | > 100 | > 100 | – | – | – | – | – | – | –
7 | CN1CCc2c(sc3ncn(Nc4ccc(Cl)cc4)c(=N)c23)C1 | > 100 | > 100 | > 100 | > 100 | > 100 | > 100 | > 100 | – | > 100 | > 100 | – | – | – | – | – | – | –
8 | C=CC(C)C1(CCCOCc2ccccc2)C(=S)N2CCC3(CC24CCCC14)OCCO3 (centres undefined) | > 100 | – | > 100 | – | > 100 | > 100 | > 100 | > 100 | > 100 | > 100 | – | – | – | – | – | – | –
9 | S=c1nc(N/N=C/c2cccs2)c2cn[nH]c2[nH]1 | – | > 100 | > 100 | > 100 | > 100 | > 100 | 66 | > 100 | > 100 | 13.1 | – | – | – | – | – | – | –
10 | OC12c3ccccc3C1CCCCCCCCCC21OCCO1 (centres undefined) | > 100 | > 100 | > 100 | > 100 | > 100 | > 100 | > 100 | > 100 | – | > 100 | – | – | – | – | – | – | –
11 | C=CC(=O)N1C/C(=C\c2ccc([N+](=O)[O-])cc2)C(=O)/C(=C/c2ccc([N+](=O)[O-])cc2)C1 | – | 0.41 | 3.08 | 2.54 | 0.772 | 3.25 | – | 0.375 | 0.829 | 1.21 | – | – | – | – | – | – | –
12 | COC(=O)CNC(=O)CCC(C)[C@H]1CCC2C3C(C[C@H](OC(C)=O)[C@@]21C)[C@@]1(C)CCC2(C[C@H]1C[C@H]3OC(C)=O)OOC1(CC[C@]3(C)C4C[C@H](OC(C)=O)[C@@]5(C)C(CC[C@@H]5C(C)CCC(=O)NCC(=O)OC)C4[C@H](OC(C)=O)C[C@@H]3C1)OO2 (some centres undefined) | 1.57 | 7.96 | > 50 | – | – | 2.74 | – | 1.51 | 1.78 | 26.4 | – | – | – | – | – | – | –
13 | CC(=O)O[C@H]1C(=O)[C@@]2(C)[C@H]([C@H](OC(=O)c3ccccc3)[C@]3(O)C[C@H](OC(=O)[C@H](O)[C@@H](NC(=O)c4ccccc4)c4cccc(N(C)C)c4)C(C)=C1C3(C)C)[C@]1(OC(C)=O)CO[C@@H]1C[C@@H]2O | – | – | > 41.9 | 11.3 | > 75 | > 75 | – | > 64.6 | > 75 | 27.5 | – | – | – | – | – | – | –
14 | Cc1cc2n[n+]3[n-]cc(-c4ccccc4)n3c2cc1[N+](=O)[O-] | > 100 | – | > 100 | > 100 | – | > 100 | > 100 | > 100 | > 100 | > 100 | – | – | – | – | – | – | –
15 | Nc1ccc2ccc(N3CCNCC3)nc2n1 | > 100 | > 100 | > 100 | – | > 100 | > 100 | > 100 | > 100 | > 100 | > 100 | – | – | – | – | – | – | –
16 | CCCCCCCCCCCCCC[n+]1ccc(C(N)=O)cc1 | > 100 | – | – | – | 10.6 | 6.08 | > 100 | 24.3 | 6.71 | 8.18 | 2.52 | 3.2 | 2.24 | 2.58 | 2.54 | 7.65 | 1.98
17 | COC(=O)C1=C(C(=O)OC)C(N(C)C)C(C(=O)OC)=C(C(=O)OC)S1 | – | > 100 | > 100 | – | > 100 | > 100 | > 100 | > 100 | – | > 100 | – | – | – | – | – | – | –
18 | O=C(N/N=C\c1cccc2ccccc12)Nc1cccc2ccccc12 | > 100 | > 100 | 48.9 | > 100 | > 100 | > 100 | – | > 100 | > 100 | > 100 | – | – | – | – | – | – | –
19 | O[C@@H]1CCC[C@@H]2NC[C@@H](c3ccc4c(c3)OCO4)[C@H]12 | > 100 | > 100 | > 100 | > 100 | – | > 100 | > 100 | > 100 | > 100 | > 100 | – | – | – | – | – | – | –
20 | COC(=O)[C@]1(c2ccc(N(C)C)cc2OC)C[C@@H]2CCCN(CCc3c1[nH]c1ccccc31)C2 | > 84.3 | – | > 100 | 31.4 | 41 | 39.6 | > 91.4 | 33.2 | 52 | 33.7 | – | – | – | – | – | – | –
21 | C#C[C@@]1(O)CCCC2=CC3(CC[C@]21C)SCCS3 | – | > 100 | > 100 | > 100 | > 100 | > 100 | > 100 | > 100 | > 100 | > 100 | – | – | – | – | – | – | –
22 | O=c1[nH]c2nccn2c2c1SCCN2 | > 100 | > 100 | > 100 | > 100 | > 100 | > 100 | > 100 | – | > 100 | > 100 | – | – | – | – | – | – | –
23 | CNC(=O)SCC(NC(=O)CCC(N)C(=O)O)C(=O)NCC(=O)O (centres undefined) | > 100 | – | > 100 | > 100 | > 100 | > 100 | > 100 | > 100 | > 100 | > 100 | – | – | – | – | – | – | –
